Reference: BindingDB's records for doi:10.1016/j.ejmech.2019.111668 (Yantai University, 2019)

Columns and labels:
[1] = Reversal of P-gp-mediated multidrug resistance in human KBV cells assessed as potentiation of vincristine-induced cytotoxicity by measuring vincristine IC50 at 5 uM after 72 hrs by MTT assay (Rvb = 2.92 +/- 0.31 nM)
[2] = Reversal of P-gp-mediated multidrug resistance in human KBV cells assessed as potentiation of irinotecan-induced cytotoxicity by measuring irinotecan IC50 at 10 uM after 72 hrs by MTT assay (Rvb = 49.2 +/- 0.46 nM)
[3] = Reversal of P-gp-mediated multidrug resistance in human KBV cells assessed as potentiation of paclitaxel-induced cytotoxicity by measuring paclitaxel IC50 at 10 uM after 72 hrs by MTT assay (Rvb = 352.31 +/- 10.9 nM)
[4] = Reversal of P-gp-mediated multidrug resistance in human KBV cells assessed as potentiation of irinotecan-induced cytotoxicity by measuring irinotecan IC50 at 5 uM after 72 hrs by MTT assay (Rvb = 49.2 +/- 0.46 nM)
[5] = Reversal of P-gp-mediated multidrug resistance in human KBV cells assessed as potentiation of paclitaxel-induced cytotoxicity by measuring paclitaxel IC50 at 5 uM after 72 hrs by MTT assay (Rvb = 352.31 +/- 10.9 nM)
[6] = Reversal of P-gp-mediated multidrug resistance in human KBV cells assessed as potentiation of vincristine-induced cytotoxicity by measuring vincristine IC50 at 10 uM after 72 hrs by MTT assay (Rvb = 2.92 +/- 0.31 nM)

SMILES: CC(=O)O[C@H]1C[C@@]2(C)[C@@H](C[C@@H](O)[C@H]3[C@@]4(C)CC[C@@H](O)[C@@H](C)[C@@H]4CC[C@@]32C)/C1=C(\CCC=C(C)C)C(=O)OCc1ccccc1
- IC50 [1]: 144 nM
- IC50 [2]: 16200 nM
- IC50 [3]: 7 nM
- IC50 [4]: 37200 nM
- IC50 [5]: 17 nM
- IC50 [6]: 92 nM
